Common to all, as to assay type: cell-based
In assay [1] the test system is Mannheimia haemolytica MH 6374 (ATCC 33396, reference strain). In words: MIC, broth-microdilution (CLSI VET01-A4), strain MH 6374. Conditions: Mannheimia haemolytica strain MH 6374, broth-microdilution; unit assumed. A digest of the protocol: (§1)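 MIC is the lowest compound concentration showing no visible growth by eye, read from doubling-dilution microdilution trays. Method followed CLSI VET01-A4, with interpretation under CLSI VET01-S3.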

Assay [2] concerns Pasteurella multocida PM 10775 (080130003051, BRD field isolate). Briefly: MIC, broth-microdilution (CLSI VET01-A4), strain PM 10775. Conditions: Pasteurella multocida strain PM 10775, broth-microdilution; unit assumed. An outline of the steps: as §1
In general terms: In broth dilution the organism is exposed to a series of concentrations in liquid medium.

Assay [3] relates to Pasteurella multocida PM 12080 (IV102277-0093, BRD field isolate). In words: MIC, broth-microdilution (CLSI VET01-A4), strain PM 12080. The following applies: Pasteurella multocida strain PM 12080, broth-microdilution; unit assumed. An outline of the steps:
as §1

Assay [4] concerns Mannheimia haemolytica MH 13065 (XB0446-6003.9, BRD field isolate). Briefly: MIC, broth-microdilution (CLSI VET01-A4), strain MH 13065. Conditions: Mannheimia haemolytica strain MH 13065, broth-microdilution; unit assumed. A digest of the protocol: as §1
Assay [5] relates to Pasteurella multocida PM 6391 (ATCC 43137, reference strain). Briefly: MIC, broth-microdilution (CLSI VET01-A4), strain PM 6391. Conditions: Pasteurella multocida strain PM 6391, broth-microdilution; unit assumed. A digest of the protocol:
as §1

Assay [6] concerns Mannheimia haemolytica MH 13093 (XB0472-6014.1, BRD field isolate). In words: MIC, broth-microdilution (CLSI VET01-A4), strain MH 13093. Conditions: Mannheimia haemolytica strain MH 13093, broth-microdilution; unit assumed. A digest of the protocol: as §1
The test system of assay [7] is Mannheimia haemolytica MH 10720 (154, BRD field isolate). Briefly: MIC, broth-microdilution (CLSI VET01-A4), strain MH 10720. The following applies: Mannheimia haemolytica strain MH 10720, broth-microdilution; unit assumed. A digest of the protocol: as §1
The test system of assay [8] is Mannheimia haemolytica MH 6357 (M7/2, reference strain, cattle infection strain). Briefly: MIC, broth-microdilution (CLSI VET01-A4), strain MH 6357. Conditions: Mannheimia haemolytica strain MH 6357, broth-microdilution; unit assumed. An outline of the steps: as §1
Assay [9] concerns Mannheimia haemolytica MH 12587 (1071, BRD field isolate, macrolide-resistance: erm+, E+). Briefly: MIC, broth-microdilution (CLSI VET01-A4), strain MH 12587. Conditions: Mannheimia haemolytica strain MH 12587, broth-microdilution; unit assumed. An outline of the steps:
as §1

Assay [10] concerns Pasteurella multocida PM 6267 (P 2225 (L386), reference strain, mouse infection strain). In words: MIC, broth-microdilution (CLSI VET01-A4), strain PM 6267. The following applies: Pasteurella multocida strain PM 6267, broth-microdilution; unit assumed. An outline of the steps: as §1

Results on eight compounds are retold here after patent US11034650B2, “Compounds useful for treating a Mannheimia haemolytica or Histophilus somni infection” (Intervet Inc., priority 2016, dated 2021).

In brackets after ≈: the same amount, converted by molar mass. Where only a bound is given, the exact number is not on record here.

Regarding `CC(C)([C@H](NC(=O)c1ccc(C#Cc2ccc(CNCc3ccncc3)s2)cc1)C(=O)NO)S(C)(=O)=O` [Compound 317], in assay [1], the MIC MH 6374 stood at 0.4 µg/mL (≈ 0.74 µM). Also, the MIC PM 10775 in assay [2] is ≤ 0.1 µg/mL. Moreover, the MIC PM 12080 in assay [3] was ≤ 0.1 µg/mL. The compound also returned an MIC MH 13065 in assay [4] of 0.4 µg/mL (≈ 0.74 µM). Besides, in assay [5], the MIC PM 6391 is ≤ 0.1 µg/mL. The compound also showed an MIC MH 13093 in [6] of 0.4 µg/mL (≈ 0.74 µM). Further, the MIC MH 10720 in [7] is ≤ 0.1 µg/mL. In [8], the MIC MH 6357 was 0.2 µg/mL (≈ 0.37 µM). The compound further returned an MIC MH 12587 in assay [9] of 0.8 µg/mL (≈ 1.48 µM). Also, the MIC PM 6267 in assay [10] was 0.2 µg/mL (≈ 0.37 µM).

With `CC(C)([C@H](NC(=O)c1ccc(C#Cc2ccc(CNCC#N)s2)cc1)C(=O)NO)S(C)(=O)=O` [Compound 318], in assay [1], the MIC MH 6374 was 0.8 µg/mL (≈ 1.64 µM). The MIC PM 10775 in [2] was ≤ 0.1 µg/mL. In assay [3], this compound yielded an MIC PM 12080 of 0.2 µg/mL (≈ 0.409 µM). Moreover, in assay [4], the MIC MH 13065 was found to be 0.8 µg/mL (≈ 1.64 µM). In assay [5], this compound showed an MIC PM 6391 of 0.8 µg/mL (≈ 1.64 µM). This compound gave an MIC MH 13093 in assay [6] of 1.6 µg/mL (≈ 3.27 µM). Besides, the MIC MH 10720 in [7] was ≤ 0.1 µg/mL. This compound also showed an MIC MH 6357 in [8] of 0.4 µg/mL (≈ 0.819 µM). In [9], this compound displayed an MIC MH 12587 of 1.6 µg/mL (≈ 3.27 µM). Further, the MIC PM 6267 in [10] worked out at 0.8 µg/mL (≈ 1.64 µM).

Regarding `CC(C)([C@H](NC(=O)c1ccc(C#Cc2ccc(CNCc3ccccn3)s2)cc1)C(=O)NO)S(C)(=O)=O` [Compound 320], the MIC MH 6374 in assay [1] is ≤ 0.1 µg/mL. The MIC PM 10775 in [2] is ≤ 0.1 µg/mL. For the same compound, in assay [3], the MIC PM 12080 is ≤ 0.1 µg/mL. The same compound returned an MIC MH 13065 in assay [4] of 0.2 µg/mL (≈ 0.37 µM). The MIC PM 6391 in assay [5] is ≤ 0.1 µg/mL. The compound also gave an MIC MH 13093 in [6] of 0.4 µg/mL (≈ 0.74 µM). Also, the MIC MH 10720 in assay [7] was ≤ 0.1 µg/mL. The MIC MH 6357 in [8] worked out at 0.2 µg/mL (≈ 0.37 µM). For the same compound, the MIC MH 12587 in [9] is 0.8 µg/mL (≈ 1.48 µM). The compound also had an MIC PM 6267 in assay [10] of 0.2 µg/mL (≈ 0.37 µM).

With `CC(C)([C@H](NC(=O)c1ccc(C#Cc2ccc(CNCc3ccco3)s2)cc1)C(=O)NO)S(C)(=O)=O` [Compound 321], the MIC MH 6374 in assay [1] is ≤ 0.1 µg/mL. The MIC PM 10775 in assay [2] is ≤ 0.1 µg/mL. In assay [3], the MIC PM 12080 was ≤ 0.1 µg/mL. Moreover, the MIC MH 13065 in assay [4] came to 0.2 µg/mL (≈ 0.378 µM). In assay [5], the MIC PM 6391 is ≤ 0.1 µg/mL. In addition, the MIC MH 13093 in assay [6] amounted to 0.2 µg/mL (≈ 0.378 µM). Also, the MIC MH 10720 in [7] is ≤ 0.1 µg/mL. The MIC MH 6357 in assay [8] was ≤ 0.1 µg/mL. In [9], this compound displayed an MIC MH 12587 of 0.4 µg/mL (≈ 0.755 µM). For the same compound, the MIC PM 6267 in assay [10] is ≤ 0.1 µg/mL.

Regarding `CC(C)([C@H](NC(=O)c1ccc(C#Cc2ccc(CNCc3ncccn3)s2)cc1)C(=O)NO)S(C)(=O)=O` [Compound 322], the MIC MH 6374 in assay [1] was 1.6 µg/mL (≈ 2.95 µM). The MIC PM 10775 in assay [2] is ≤ 0.1 µg/mL. In assay [3], the MIC PM 12080 was ≤ 0.1 µg/mL. In [4], the MIC MH 13065 was 0.8 µg/mL (≈ 1.48 µM). Moreover, the MIC PM 6391 in [5] came out at 0.2 µg/mL (≈ 0.369 µM). In [6], this compound showed an MIC MH 13093 of 0.8 µg/mL (≈ 1.48 µM). Also, the MIC MH 10720 in assay [7] is ≤ 0.1 µg/mL. In [8], this compound showed an MIC MH 6357 of 0.4 µg/mL (≈ 0.738 µM). Besides, the MIC MH 12587 in assay [9] came out at 1.6 µg/mL (≈ 2.95 µM). Further, in assay [10], the MIC PM 6267 stood at 0.4 µg/mL (≈ 0.738 µM).

Turning to `Cc1cnc(CNCc2ccc(C#Cc3ccc(C(=O)N[C@H](C(=O)NO)C(C)(C)S(C)(=O)=O)cc3)s2)o1` [Compound 323], in assay [1], the MIC MH 6374 was found to be 0.2 µg/mL (≈ 0.367 µM). The MIC PM 10775 in [2] was ≤ 0.1 µg/mL. In assay [3], the MIC PM 12080 is ≤ 0.1 µg/mL. This compound registered an MIC MH 13065 in assay [4] of 0.4 µg/mL (≈ 0.734 µM). In addition, the MIC PM 6391 in assay [5] was ≤ 0.1 µg/mL. The compound further had an MIC MH 13093 in [6] of 0.8 µg/mL (≈ 1.47 µM). In [7], the MIC MH 10720 is ≤ 0.1 µg/mL. For the same compound, the MIC MH 6357 in assay [8] turned out to be 0.2 µg/mL (≈ 0.367 µM). The compound further returned an MIC MH 12587 in [9] of 0.8 µg/mL (≈ 1.47 µM). In assay [10], this compound had an MIC PM 6267 of 0.2 µg/mL (≈ 0.367 µM).

In assay [1], `CC(C)(O)[C@H](NC(=O)c1ccc(C#Cc2ccc(CNC3CC3)nc2)cc1)C(=O)NO` [Compound 324] registered an MIC MH 6374 of 0.8 µg/mL (≈ 1.89 µM). Besides, in assay [2], the MIC PM 10775 is ≤ 0.1 µg/mL. Besides, the MIC PM 12080 in assay [3] amounted to 0.2 µg/mL (≈ 0.473 µM). In [4], the MIC MH 13065 was 0.8 µg/mL (≈ 1.89 µM). Also, the MIC PM 6391 in assay [5] is 0.4 µg/mL (≈ 0.947 µM). In [6], this compound yielded an MIC MH 13093 of 1.6 µg/mL (≈ 3.79 µM). Moreover, in assay [7], the MIC MH 10720 is ≤ 0.1 µg/mL. This compound yielded an MIC MH 6357 in assay [8] of 0.4 µg/mL (≈ 0.947 µM). The same compound displayed an MIC MH 12587 in [9] of 1.6 µg/mL (≈ 3.79 µM). In assay [10], this compound gave an MIC PM 6267 of 0.4 µg/mL (≈ 0.947 µM).

As to `COCCNCc1ccc(C#Cc2ccc(C(=O)N[C@H](C(=O)NO)C(C)(C)O)cc2)cn1` [Compound 325], the MIC MH 6374 in [1] is 1.6 µg/mL (≈ 3.63 µM). Moreover, the MIC PM 10775 in assay [2] was ≤ 0.1 µg/mL. The same compound displayed an MIC PM 12080 in assay [3] of 0.8 µg/mL (≈ 1.82 µM). In [4], this compound showed an MIC MH 13065 of 1.6 µg/mL (≈ 3.63 µM). Also, the MIC PM 6391 in assay [5] was 0.8 µg/mL (≈ 1.82 µM). Further, the MIC MH 13093 in [6] was 3.1 µg/mL (≈ 7.04 µM). The compound further came in with an MIC MH 10720 in assay [7] of 0.4 µg/mL (≈ 0.908 µM). In addition, the MIC MH 6357 in assay [8] stood at 0.8 µg/mL (≈ 1.82 µM). Moreover, the MIC MH 12587 in assay [9] turned out to be 3.1 µg/mL (≈ 7.04 µM). Also, in [10], the MIC PM 6267 came to 1.6 µg/mL (≈ 3.63 µM).
